Data as given in a melting point compilation (Tetko et al.; mined from patent text by program, amines drawn as free bases though some values may be those of a salt).

SMILES	melting point
COC(=O)CCCc1cc2cc(C(F)(F)F)ccc2n1S(=O)(=O)c1ccc2ncsc2c1	117 to 121 °C
COC(=O)C(C)(C)Oc1ccc(C(=O)c2cccs2)cc1	85 °C
N#Cc1c(NC(=O)CO)cccc1NC(=O)CO	188 to 189 °C
CCCn1nc(C(F)(F)CC)nc1Cc1ccc(-c2ccccc2-c2nnn[nH]2)nc1	142 to 144 °C
CCOc1cc(C2=NNC(=O)[C@H]3CC=CC[C@@H]23)ccc1OC (relative stereo)	163 to 166 °C
CCn1nc(OC2COCCC2=O)c(-c2ccc(F)cc2)c1-c1ccc(S(C)(=O)=O)cc1 (stereo unspecified)	181 to 182 °C
CC(COc1ccccc1)NCC(O)COc1cccc(O)c1 (stereo unspecified)	124 to 127 °C
CC(C)(C)CNN(CC(C)(C)C)S(=O)(=O)c1nc(Cl)cs1	157 °C
COC(=O)c1cc(C(=O)OC)n(-c2ccc(N)cc2C(=O)c2ccccc2)n1	171 to 172 °C
CCOCc1nc2c(N)nc3cc(OCCCc4cccc(N)c4)ccc3c2n1CC(C)(C)O	164 to 166 °C
CCCCCOc1ccc(OCC(O)CC#CCCCC(=O)O)cc1 (stereo unspecified)	58 to 60 °C
CS(=O)(=O)OCCn1c(=NC(=O)C(F)(F)F)sc2cc(OC(F)(F)F)ccc21	145 °C
O=c1n(-c2cccc(Cl)c2)c(=O)n(SC(Cl)(Cl)Cl)n1SC(Cl)(Cl)Cl	153 °C
CCC(C)Nc1c([N+](=O)[O-])cc(C)c(C)c1[N+](=O)[O-] (stereo unspecified)	37 to 38.5 °C
Oc1ccc(Cl)cc1C(c1cc(Cl)ccc1O)C(F)(F)F	144 °C
Cc1nc2c(N)nc3c(c2n1CCCCS(=O)(=O)C(C)(C)C)CCCC3	208 to 210 °C
COc1cc(CCCO)c(Br)cc1OCc1ccc(Cl)cc1Cl	102 to 103 °C
CS(=O)(=O)OCCCn1cc(C2=C(c3ccccc3[N+](=O)[O-])C(=O)NC2=O)c2ccccc21	177 to 178 °C
CC#CCOc1ccc(S(=O)(=O)C(C(=O)NO)C2CCN(C(=O)c3ccccc3)CC2)cc1 (stereo unspecified)	224 °C
CCN(CC)C(=O)c1cc(-c2ccccc2)ccc1OC	85 to 87 °C
COc1cccc(CN2CCC(NC(=O)c3cnc4c(OC)cccc4c3Nc3ccc(C(=O)NC4CCN(Cc5ccccc5)CC4)cc3)CC2)c1	135 to 142 °C
Cc1ccc2c(n1)C(=O)N(c1c(Cl)ccc(C)c1C#N)C2=O	173 to 176 °C
N#Cc1c(Cl)c(Cl)n(CCl)c1-c1ccc(Cl)c(Cl)c1	153 to 156 °C
O=C(NCCCCCCNC(=O)c1ccc(OC(F)(F)F)cc1)c1ccc(OC(F)(F)F)cc1	179 to 180 °C
NS(=O)(=O)c1ccc(-c2[nH]c3ccc(Cl)cc3c2-c2ccc(Cl)cc2)cc1	245 to 247 °C
O=Cc1ccc(C(O)c2cccnc2)cc1 (stereo unspecified)	104 to 105 °C

SMILES	melting point
O=c1c2ccccc2[nH]c(=S)n1CCN1CCC(Nc2nc3ccccc3n2Cc2ccc(F)cc2)CC1	198 °C
CC(C)(C)OC(=O)CN1C(=O)[C@@H](N2C(=O)c3ccccc3C2=O)CSc2ccccc21	181 to 184 °C
C=CCOCCCCOc1ccc2c(c1)Cc1cc(C(C)=O)ccc1-2	77 °C
CCCCCCCCCCCCCCCCNC(=O)c1cc(O)cc(O)c1	154 to 156 °C
CCn1nnn(CCN2CCC(=C3c4sccc4CCn4ccnc43)CC2)c1=O	175 °C
NC(=O)COc1ccc(OCCn2ccnc2)cc1	123 to 124 °C
Nc1cc(Oc2ccc3c(c2)OCCN3)ncn1	140 to 141 °C
CCOC(=O)Cc1cnc(-c2cc3cccc(N(C)S(=O)(=O)c4cccs4)c3[nH]2)s1	126 to 127 °C
O=C(O)c1cc2nc3n(c2cc1Cl)CCC3	> 270 °C
COc1cc(C)nc(-c2cccc(-c3ccccc3C)n2)n1	103 °C
Cc1nccn1-c1nc(-c2ccc(C(F)(F)F)cc2)c(CCCO)o1	127 to 129 °C
Cc1cccc(NC(=O)c2ccccc2C)c1	145 to 146 °C
CCC(O)c1cc(C(=O)OC)c(NC(C)=O)cc1C(F)(F)F (stereo unspecified)	120 to 122 °C
OC[C@@H]1OC[C@H](n2c(NC3CC3)nc3cc(Cl)c(Cl)cc32)[C@@H](O)[C@H]1O	164 °C
COc1ccc(-c2nn(C(C)C)c3c(C(F)(F)F)cccc23)c(OC)c1	128 to 129 °C
Cc1ccc(Br)cc1-c1c(O)c(C)nn(C)c1=O	217 to 218 °C
Cc1cccc(NC(=O)Nc2ccc(-c3c(C(C)C)sc4ncnc(N)c34)cc2)c1	169 to 171 °C
CCc1nc(Cl)c(C(N)=O)n1Cc1ccc2oc(-c3ccccc3NS(=O)(=O)C(F)(F)F)c(Br)c2c1	68 to 70 °C
O=C1c2c(Cl)cccc2-n2cnc(-c3noc(C(F)(F)F)n3)c2[C@@H]2CCCN12	220 to 221 °C
Cc1cccc2c(C#N)csc12	82 to 84 °C
NS(=O)(=O)NC[C@H]1COc2cc(Cl)c(Cl)cc2O1	119 to 121 °C
CC(C)(C)OC(=O)C(C)(C)Oc1ccc(N)cc1	87 to 88 °C
CCOC(=O)c1nn(-c2ccc(Cl)cc2)c(=O)c(C#N)c1C	160 to 161 °C
COc1cc2c(c(OC)c1)OC(C(F)(F)F)C(C(=O)O)=C2 (stereo unspecified)	215 to 217 °C
CC(CS(=O)(=O)c1ccccc1)C1CCC2C3CC=C4CC(O)CCC4(C)C3CCC12C (stereo unspecified)	158 to 161 °C
O=C1CCC(N2C=Nc3ccccc3CC2)C(=O)N1 (stereo unspecified)	84 to 91 °C

SMILES	melting point
N#CNC=Nc1ccc(-c2c[nH]cn2)cc1	234 to 235 °C
CC1(C)Oc2ccc(S(=O)(=O)c3ccc(C#N)cc3)cc2C(O)C1Br (stereo unspecified)	157 to 158 °C
CCOC(=O)c1cc2ccc(CBr)cc2o1	95 to 102 °C
COC(=O)c1cc(CBr)cc(C2(C#N)CCC2)c1	93.9 to 94.6 °C
O=C(OC1c2nccnc2C(=O)N1c1ccc2ccc(Cl)nc2n1)N1CCCCC1 (stereo unspecified)	249 °C
CC(C)N1Cc2cncn2C(c2ccc(C#N)cc2)C1=O (stereo unspecified)	122 to 124 °C
CC(O)CN1C(C)(C)CC(O)CC1(C)C (stereo unspecified)	97 to 98 °C
O=C(Nc1n[nH]c(=S)s1)NC(Cc1ccccc1)C(=O)NCc1ccc2c(c1)OCO2 (stereo unspecified)	213 °C
C[C@@H](N1CC(=O)N(c2ccc(OC(F)(F)C(F)F)cc2)CC1=O)[C@@]1(c2ccc(F)cc2F)CO1	168 to 170 °C
Cc1nnc(-c2ccc3occ(-c4cccc(OC(F)(F)F)c4)c3c2)o1	110 to 111 °C
CCOC(=O)/C(=N\OCC1CCCCC1)c1csc(N)n1	107 to 108 °C
COC(=O)c1cc(-c2cccc(Cl)c2)sc1N	85 to 87 °C
COc1ccc(C(=O)C2=C(O)C(=O)N(c3nnc(C)s3)C2c2ccc(O)cc2)cc1 (stereo unspecified)	251 °C
Cc1c(C(=O)OCc2ccccc2)sc2ccc3[nH]c4c(c3c12)CN(C)CC4	174 °C
COc1cc(Nc2c(C#N)cnc3cc(OCC4CCCCO4)c(OC)cc23)c(Cl)cc1Cl (stereo unspecified)	193 to 196 °C
CNC(=O)NCCCCc1cccc(OC)c1	74 to 75.5 °C
CCOP(=O)(OCC)c1nc(NC2CC(C)(C)NC(C)(C)C2)nc(NC2CC(C)(C)NC(C)(C)C2)n1	195 °C
CCOCc1nc2c(N)nc3cc(OCc4cccc(N)c4)ccc3c2n1CC(C)C	228 to 230 °C
Cc1oc(-c2ccccc2)nc1COc1ccc2cc(C=CC=C3SC(=O)NC3=O)ccc2c1	267 to 268 °C
O=C(Nc1ccc(-n2nc(C(F)(F)F)cc2C(F)(F)F)cc1)c1cc(Br)c(Br)s1	142 to 144 °C
CC(=O)N1CCc2cc(CC(C)Br)ccc21 (stereo unspecified)	124 to 126 °C
CC1(NC(=O)C(Br)CBr)COCOC1 (stereo unspecified)	115 to 119 °C
CCC(CC)Oc1nn(C)c(=O)c2c1ccn2-c1c(C)cc(C)cc1C	87 to 88 °C
COc1ccc(-n2c(C)cc(=O)[nH]c2=S)cc1	248 to 249 °C
COc1ccc(OC)c(S(=O)(=O)n2c(CCC(=O)O)cc3nc(Cl)ccc32)c1	204 to 209 °C
Oc1cc(-c2ccc(Cl)cc2)nc2ccnn12	306 to 308 °C

SMILES	melting point
N#Cc1ccc(CC2CCN(C(=O)c3ccc(Cl)cc3)CC2)cc1	137 to 139 °C
Cn1nc(-c2ccncc2)c2ccccc2c1=O	173 to 174 °C
CS(=O)(=O)ON=C(C#N)C=Cc1ccccc1	127 to 129 °C
CN1CCc2cc(Cl)c(N)cc2[C@@H](c2ccccc2)C1	68 to 70 °C
CCCc1nc2c(N)nc3ccccc3c2n1CCCCCC(N)=O	210 to 211 °C
CCOc1c2ccccc2nc2c1c(C)nn2-c1ccccn1	121 to 123 °C
Cn1nc(-c2c(F)cccc2Cl)nc1-c1ccc(OCc2ccc(C(F)(F)F)cc2F)c(Cl)c1	109 to 111 °C
CCCCNC(=O)Oc1cccc(NC(=O)CC(=O)CCC)c1	123 °C
COC(=O)COc1c(C(=O)OC)n(-c2ccccc2)c2ccc(OC)cc12	97 to 100 °C
COc1ccc(C(=O)C(C(=O)Nc2ccccc2Cl)N2C(=O)c3ccccc3C2=O)cc1[N+](=O)[O-] (stereo unspecified)	203 to 205 °C
COc1ccc([C@H](Cc2ccncc2)c2ccccc2)cc1O	158 to 159 °C
CCn1c2ccccc2c2c3c(c(-c4ccccc4Cl)cc21)C(=O)NC3O (stereo unspecified)	225 to 228 °C
CC(=O)Nc1cc(N)c(Cl)cc1NC(C)=O	237 °C
CN(CCO)c1ccncc1	90 to 91 °C
Cc1noc(-c2cccc(NC(=O)Oc3ccc([N+](=O)[O-])cc3)c2)n1	217 to 220 °C
CCn1nc(C(F)(F)F)c(CS(=O)(=O)C2=NOC(C)(CCl)C2)c1F (stereo unspecified)	73 to 75 °C
CC1(C)C=Nc2cc3[nH]c(-c4ccncc4)cc3cc21	> 300 °C
COc1ccc(C(=O)Nc2ccc3ccc(SC)nc3n2)cc1	130 °C
Cc1c(NC(=O)c2ccc(OCC3CCCO3)cc2)ccc2cc(CNC3CCC(O)CC3)cnc12 (stereo unspecified)	155 °C
CCOC(=O)C1=C(C)NC(c2csc(N)n2)=NC1c1ccc(F)cc1Cl (stereo unspecified)	95 to 110 °C
CCC(C)(C)NC(Nc1ccc2c(c1)OCO2)=C(C#N)S(C)(=O)=O	86 to 88 °C
CC1=CC(=O)CC2CCC3C4C(C#N)CC(=O)C4(C)CCC3C12C (stereo unspecified)	193 °C
O=C(NCCO)Nc1ccccc1	120 to 122 °C
